In one assay the test system is LNCaP cells. Nature of the assay: LNCaP cell viability assay (CellTiter-Glo). The assay is classed as cell-based. The note with it: for pIC50: Homo sapiens, 72 h, LNCaP prostate cancer cell viability inhibition, 3 days. In outline: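 Three-day treatment of LNCaP cells (5000 per well) across a 12-point, 3-fold dilution series starting at 10 μM. ATP luminescence (CellTiter-Glo) relative to untreated controls gave dose-response curves fitted nonlinearly for IC50.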
In general terms: ATP-based viability assays read luminescence as a measure of living cells.

The next assay has as its target P300 (Homo sapiens, UniProt Q09472). Kind of assay: Immunoblotting of P300 protein levels in LNCaP or 22RV1 cells. The settings on record: read-out: Degradation (10 nM). Set-up: LNCaP or 22RV1 cells that express CBP/P300 proteins were treated with GNE-781 or the bivalent compounds; endogenous in cells; host or cells: LNCaP (clone FGC) or 22RV1 cells. The class given is cell-based. A digest of the protocol:
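P300/CBP levels quantified by chemiluminescent immunoblot band densitometry, normalized against tubulin or vinculin loading controls. Lysates came from LNCaP or 22RV1 cells exposed to compounds or DMSO vehicle for indicated times.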

Setting [1] is: percentage of inhibition of p300 at 10 nM (Table 3).
Where [2] appears, read: percentage of inhibition of p300 at 10 nM (Table 2).

This note sets out measurements from US20230073777A1, “CYCLIC-AMP RESPONSE ELEMENT BINDING PROTEIN (CBP) AND/OR ADENOVIRAL E1A BINDING PROTEIN OF 300 KDA (P300) DEGRADATION COMPOUNDS AND METHODS OF USE” (CULLGEN (SHANGHAI), INC., priority 2019, published 2023).

pIC50: −log10 of the molar value. Where two headings read alike, the source gives them in different places.

Sequence of P300 (Q09472 whole entry): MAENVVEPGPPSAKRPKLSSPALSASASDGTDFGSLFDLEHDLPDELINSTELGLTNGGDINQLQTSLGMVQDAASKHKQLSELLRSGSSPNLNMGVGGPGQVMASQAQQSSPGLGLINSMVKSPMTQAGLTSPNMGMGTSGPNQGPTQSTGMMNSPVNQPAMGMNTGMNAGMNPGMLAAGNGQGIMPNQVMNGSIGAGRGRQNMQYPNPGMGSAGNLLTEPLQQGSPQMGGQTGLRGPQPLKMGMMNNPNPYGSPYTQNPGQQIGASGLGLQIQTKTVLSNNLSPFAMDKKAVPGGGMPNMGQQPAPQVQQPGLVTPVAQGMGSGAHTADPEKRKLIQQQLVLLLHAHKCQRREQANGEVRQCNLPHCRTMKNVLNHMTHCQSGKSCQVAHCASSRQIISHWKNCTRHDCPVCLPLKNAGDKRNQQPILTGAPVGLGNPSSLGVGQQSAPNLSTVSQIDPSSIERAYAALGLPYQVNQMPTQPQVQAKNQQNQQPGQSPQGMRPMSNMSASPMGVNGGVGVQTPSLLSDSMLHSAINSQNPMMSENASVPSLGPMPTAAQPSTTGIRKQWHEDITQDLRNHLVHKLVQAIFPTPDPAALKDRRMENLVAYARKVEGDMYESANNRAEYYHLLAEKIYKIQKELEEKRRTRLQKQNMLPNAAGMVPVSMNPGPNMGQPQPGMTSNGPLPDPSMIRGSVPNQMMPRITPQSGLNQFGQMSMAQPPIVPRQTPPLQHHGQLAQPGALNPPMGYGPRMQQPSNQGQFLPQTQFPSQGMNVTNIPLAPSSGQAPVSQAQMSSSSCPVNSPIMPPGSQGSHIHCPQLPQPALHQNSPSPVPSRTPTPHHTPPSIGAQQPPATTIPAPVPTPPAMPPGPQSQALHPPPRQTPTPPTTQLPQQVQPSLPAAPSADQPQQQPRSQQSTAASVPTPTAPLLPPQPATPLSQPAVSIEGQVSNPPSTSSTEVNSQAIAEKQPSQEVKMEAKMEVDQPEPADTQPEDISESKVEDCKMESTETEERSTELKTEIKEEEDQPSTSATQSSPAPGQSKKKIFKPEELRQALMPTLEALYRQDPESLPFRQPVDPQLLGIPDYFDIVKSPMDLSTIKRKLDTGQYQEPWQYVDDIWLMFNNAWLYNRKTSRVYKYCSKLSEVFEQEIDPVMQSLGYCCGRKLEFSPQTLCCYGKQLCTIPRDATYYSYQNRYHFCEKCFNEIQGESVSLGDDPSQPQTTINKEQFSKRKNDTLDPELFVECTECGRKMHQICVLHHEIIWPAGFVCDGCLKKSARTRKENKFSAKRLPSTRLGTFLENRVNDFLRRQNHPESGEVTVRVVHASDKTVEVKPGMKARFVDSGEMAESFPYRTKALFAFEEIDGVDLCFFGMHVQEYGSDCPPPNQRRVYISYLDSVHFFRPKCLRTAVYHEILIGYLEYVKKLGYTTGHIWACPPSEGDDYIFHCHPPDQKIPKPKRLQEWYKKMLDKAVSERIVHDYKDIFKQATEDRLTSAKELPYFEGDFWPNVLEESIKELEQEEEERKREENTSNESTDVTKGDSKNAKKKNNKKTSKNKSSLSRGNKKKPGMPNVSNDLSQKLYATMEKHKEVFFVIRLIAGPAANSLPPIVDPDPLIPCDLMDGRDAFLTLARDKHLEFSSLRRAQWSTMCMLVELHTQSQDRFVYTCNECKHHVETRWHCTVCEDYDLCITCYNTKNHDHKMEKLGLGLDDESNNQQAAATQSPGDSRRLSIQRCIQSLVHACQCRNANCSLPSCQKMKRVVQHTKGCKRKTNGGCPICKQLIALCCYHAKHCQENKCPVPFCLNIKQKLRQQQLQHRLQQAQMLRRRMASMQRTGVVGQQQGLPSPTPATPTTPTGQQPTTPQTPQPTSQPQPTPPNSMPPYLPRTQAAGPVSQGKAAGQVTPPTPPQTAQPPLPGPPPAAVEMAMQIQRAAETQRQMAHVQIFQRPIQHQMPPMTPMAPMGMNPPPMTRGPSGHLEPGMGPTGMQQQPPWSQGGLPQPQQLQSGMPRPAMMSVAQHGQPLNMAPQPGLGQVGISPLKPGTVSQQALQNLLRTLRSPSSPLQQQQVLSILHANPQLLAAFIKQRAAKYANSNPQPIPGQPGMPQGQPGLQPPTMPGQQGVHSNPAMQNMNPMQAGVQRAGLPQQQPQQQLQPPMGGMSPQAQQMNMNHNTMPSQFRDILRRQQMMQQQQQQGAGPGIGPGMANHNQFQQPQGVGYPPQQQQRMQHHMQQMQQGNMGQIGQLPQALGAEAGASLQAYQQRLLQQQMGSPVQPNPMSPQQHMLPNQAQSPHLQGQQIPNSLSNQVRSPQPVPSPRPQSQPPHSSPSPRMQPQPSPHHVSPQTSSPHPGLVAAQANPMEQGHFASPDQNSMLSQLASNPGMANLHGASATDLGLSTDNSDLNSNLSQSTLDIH

On to `CNC(=O)N1CCc2c(c(N3CCCc4cc(-c5cnn(CC(=O)NCCCCCCC(=O)N[C@H](C(=O)N6C[C@H](O)C[C@H]6C(=O)NCc6ccc(-c7scnc7C)cc6)C(C)(C)C)c5)c(C(F)F)cc43)nn2C2CCOCC2)C1` [P-080, 3-(7-(Difluoromethyl)-6-(1-(2-((7-(((S)-1-((2S,4R)-4-hydroxy-2-((4-(4-methylthiazol-5-yl)benzyl)carbamoyl)pyrrolidin-1-yl)-3,3-dimethyl-1-oxobutan-2-yl)amino)-7-oxoheptyl)amino)-2-oxoethyl)-1H-pyrazol-4-yl)-3,4-dihydroquinolin-1(2H)-yl)-N-methyl-1-(tetrahydro-2H-pyran-4-yl)-1,4,6,7-tetrahydro-5H-pyrazolo[4,3-c]pyridine-5-carboxamide], for which the pIC50 – broadly, the negative decadic logarithm of the IC50, by convention in mol/L – in the assay with LNCaP cells (CellTiter-Glo (Table 3)) was < 5.00. The inhibition at 0.01 µM at P300 (setting [1]) was < 20%.

Regarding `CNC(=O)N1CCc2c(c(N3CCCc4cc(-c5cnn(CC(=O)NCCCCNc6cccc7c6C(=O)N(C6CCC(=O)NC6=O)C7=O)c5)c(C(F)F)cc43)nn2C2CCOCC2)C1` (centres unmarked) [P-039, 3-(7-(Difluoromethyl)-6-(1-(2-((4-((2-(2,6-dioxopiperidin-3-yl)-1,3-dioxoisoindolin-4-yl)amino)butyl)amino)-2-oxoethyl)-1H-pyrazol-4-yl)-3,4-dihydroquinolin-1(2H)-yl)-N-methyl-1-(tetrahydro-2H-pyran-4-yl)-1,4,6,7-tetrahydro-5H-pyrazolo[4,3-c]pyridine-5-carboxamide], in the assay with LNCaP cells (CellTiter-Glo (Table 2)), the pIC50 is 6.40. Moreover, the inhibition at 0.01 µM on P300 (setting [2]) is < 20%.

In the assay with LNCaP cells (CellTiter-Glo (Table 3)), `CNC(=O)N1CCc2c(c(N3CCCc4cc(-c5cnn(C)c5)c(C(F)F)cc43)nn2C2CCN(C(=O)CCCCCCNc3ccc4c(c3)n(C)c(=O)n4C3CCC(=O)NC3=O)CC2)C1` (centres unmarked) [P-129, 3-(7-(difluoromethyl)-6-(1-methyl-1H-pyrazol-4-yl)-3,4-dihydroquinolin-1(2H)-yl)-1-(1-(7-((1-(2,6-dioxopiperidin-3-yl)-3-methyl-2-oxo-2,3-dihydro-1H-benzo[d]imidazol-5-yl)amino)heptanoyl)piperidin-4-yl)-N-methyl-1,4,6,7-tetrahydro-5H-pyrazolo[4,3-c]pyridine-5-carboxamide] showed a negative logarithm of the IC50 (pIC50) of 9.70. On P300 (setting [1]), the inhibition at 0.01 µM is > 80%.

In the assay on LNCaP cells (CellTiter-Glo (Table 3)), `CNC(=O)N1CCc2c(c(N3CCCc4cc(-c5cnn(C)c5)c(C(F)F)cc43)nn2C2CCN(C(=O)CCOCCOCCC(=O)N[C@H](C(=O)N3C[C@H](O)C[C@H]3C(=O)NCc3ccc(-c4scnc4C)cc3)C(C)(C)C)CC2)C1` [P-067, 3-(7-(Difluoromethyl)-6-(1-methyl-1H-pyrazol-4-yl)-3,4-dihydroquinolin-1(2H)-yl)-1-(1-(3-(2-(3-(((S)-1-((2S,4R)-4-hydroxy-2-((4-(4-methylthiazol-5-yl)benzyl)carbamoyl)pyrrolidin-1-yl)-3,3-dimethyl-1-oxobutan-2-yl)amino)-3-oxopropoxy)ethoxy)propanoyl)piperidin-4-yl)-N-methyl-1,4,6,7-tetrahydro-5H-pyrazolo[4,3-c]pyridine-5-carboxamide] had a pIC50 of 7.49. For the same compound, the inhibition at 0.01 µM at P300 (setting [1]) is < 20%.

Regarding `CC(=O)N1CCc2c(c(N3CCCc4cc(-c5cnn(C)c5)c(C(F)F)cc43)nn2C2CCN(C(=O)CCCCCCCCCn3c(=O)n(C4CCC(=O)NC4=O)c4ccccc43)CC2)C1` (centres unmarked) [P-164, 3-(3-(10-(4-(5-acetyl-3-(7-(difluoromethyl)-6-(1-methyl-1H-pyrazol-4-yl)-3,4-dihydroquinolin-1(2H)-yl)-4,5,6,7-tetrahydro-1H-pyrazolo[4,3-c]pyridin-1-yl)piperidin-1-yl)-10-oxodecyl)-2-oxo-2,3-dihydro-1H-benzo[d]imidazol-1-yl)piperidine-2,6-dione], in the assay with LNCaP cells (CellTiter-Glo (Table 3)), the negative logarithm of the IC50 (pIC50) was 9.00. Further, the inhibition at 0.01 µM on P300 (setting [1]) was > 80%.

In the case of `CNC(=O)N1CCc2c(c(N3CCCc4cc(-c5cnn(C)c5)c(C(F)F)cc43)nn2C2CCN(C(=O)CCCCNc3ccc4c(c3)C(=O)N(C3CCC(=O)NC3=O)C4=O)CC2)C1` (centres unmarked) [P-004, 3-(7-(difluoromethyl)-6-(1-methyl-1H-pyrazol-4-yl)-3,4-dihydroquinolin-1(2H)-yl)-1-(1-(5-((2-(2,6-dioxopiperidin-3-yl)-1,3-dioxoisoindolin-5-yl)amino)pentanoyl)piperidin-4-yl)-N-methyl-1,4,6,7-tetrahydro-5H-pyrazolo[4,3-c]pyridine-5-carboxamide], in the assay with LNCaP cells (CellTiter-Glo (Table 2)), the pIC50 was 8.15. Besides, the inhibition at 0.01 µM at P300 (setting [2]) is > 80%.

As for `CNC(=O)N1CCc2c(c(N3CCCc4cc(-c5cnn(CC(=O)NCCCCCCCCCCC(=O)N[C@H](C(=O)N6C[C@H](O)C[C@H]6C(=O)NCc6ccc(-c7scnc7C)cc6)C(C)(C)C)c5)c(C(F)F)cc43)nn2C2CCOCC2)C1` [P-050, 3-(7-(Difluoromethyl)-6-(1-(2-((11-(((S)-1-((2S,4R)-4-hydroxy-2-((4-(4-methylthiazol-5-yl)benzyl)carbamoyl)pyrrolidin-1-yl)-3,3-dimethyl-1-oxobutan-2-yl)amino)-11-oxoundecyl)amino)-2-oxoethyl)-1H-pyrazol-4-yl)-3,4-dihydroquinolin-1(2H)-yl)-N-methyl-1-(tetrahydro-2H-pyran-4-yl)-1,4,6,7-tetrahydro-5H-pyrazolo[4,3-c]pyridine-5-carboxamide], the pIC50 in the assay on LNCaP cells (CellTiter-Glo (Table 2)) was 6.95. Besides, the inhibition at 0.01 µM at P300 (setting [2]) fell in the range of 20 to 50%.

`CNC(=O)N1CCc2c(c(N3CCCc4cc(-c5cnn(CC(=O)NCCCCCCCCNc6cccc7c6C(=O)N(C6CCC(=O)NC6=O)C7=O)c5)c(C(F)F)cc43)nn2C2CCOCC2)C1` (centres unmarked) [P-043, 3-(7-(difluoromethyl)-6-(1-(2-((8-((2-(2,6-dioxopiperidin-3-yl)-1,3-dioxoisoindolin-4-yl)amino)octyl)amino)-2-oxoethyl)-1H-pyrazol-4-yl)-3,4-dihydroquinolin-1(2H)-yl)-N-methyl-1-(tetrahydro-2H-pyran-4-yl)-1,4,6,7-tetrahydro-5H-pyrazolo[4,3-c]pyridine-5-carboxamide] had a pIC50 with LNCaP cells (CellTiter-Glo (Table 2)) of 7.81. Further, the inhibition at 0.01 µM at P300 (setting [2]) lay within 20 to 50%.

In the assay with LNCaP cells (CellTiter-Glo (Table 2)), `CNC(=O)N1CCc2c(c(N3CCCc4cc(-c5cnn(CC(=O)NCCCCCNc6cccc7c6C(=O)N(C6CCC(=O)NC6=O)C7=O)c5)c(C(F)F)cc43)nn2C2CCOCC2)C1` (centres unmarked) [P-040, 3-(7-(Difluoromethyl)-6-(1-(2-((5-((2-(2,6-dioxopiperidin-3-yl)-1,3-dioxoisoindolin-4-yl)amino)pentyl)amino)-2-oxoethyl)-1H-pyrazol-4-yl)-3,4-dihydroquinolin-1(2H)-yl)-N-methyl-1-(tetrahydro-2H-pyran-4-yl)-1,4,6,7-tetrahydro-5H-pyrazolo[4,3-c]pyridine-5-carboxamide] showed a pIC50 of 7.02. The inhibition at 0.01 µM at P300 (setting [2]) is < 20%.

`CNC(=O)N1CCc2c(c(N3CCCc4cc(-c5cnn(C)c5)c(C(F)F)cc43)nn2C2CCN(C(=O)CCNc3ccc4c(c3)C(=O)N(C3CCC(=O)NC3=O)C4=O)CC2)C1` (centres unmarked) [P-002, 3-(7-(Difluoromethyl)-6-(1-methyl-1H-pyrazol-4-yl)-3,4-dihydroquinolin-1(2H)-yl)-1-(1-(3-((2-(2,6-dioxopiperidin-3-yl)-1,3-dioxoisoindolin-5-yl)amino)propanoyl)piperidin-4-yl)-N-methyl-1,4,6,7-tetrahydro-5H-pyrazolo[4,3-c]pyridine-5-carboxamide] had a pIC50 with LNCaP cells (CellTiter-Glo (Table 2)) of 7.38. In addition, the “viability of LNCaP cells” value with LNCaP cells (from 10 μM, 12-point 3-fold serial dilution, 3 days (FIG. 4)) was “dose-dependently suppressed viability”. Further, the inhibition at 0.01 µM at P300 (setting [2]) was 50 to 80%.

On to `CNC(=O)N1CCc2c(c(N3CCCc4cc(-c5cnn(CC(=O)NCCCNc6cccc7c6C(=O)N(C6CCC(=O)NC6=O)C7=O)c5)c(C(F)F)cc43)nn2C2CCOCC2)C1` (centres unmarked) [P-038, 3-(7-(Difluoromethyl)-6-(1-(2-((3-((2-(2,6-dioxopiperidin-3-yl)-1,3-dioxoisoindolin-4-yl)amino)propyl)amino)-2-oxoethyl)-1H-pyrazol-4-yl)-3,4-dihydroquinolin-1(2H)-yl)-N-methyl-1-(tetrahydro-2H-pyran-4-yl)-1,4,6,7-tetrahydro-5H-pyrazolo[4,3-c]pyridine-5-carboxamide], for which the pIC50 in the assay with LNCaP cells (CellTiter-Glo (Table 2)) is 6.41. Also, the inhibition at 0.01 µM at P300 (setting [2]) is < 20%.

Regarding `CC(=O)N1CCc2c(c(N3CCCc4cc(-c5cnn(C)c5)c(C(F)F)cc43)nn2C2CCN(C(=O)CCCCCNc3ccc4c(c3)C(=O)N(C3CCC(=O)NC3=O)C4=O)CC2)C1` (centres unmarked) [P-120, 5-((6-(4-(5-acetyl-3-(7-(difluoromethyl)-6-(1-methyl-1H-pyrazol-4-yl)-3,4-dihydroquinolin-1(2H)-yl)-4,5,6,7-tetrahydro-1H-pyrazolo[4,3-c]pyridin-1-yl)piperidin-1-yl)-6-oxohexyl)amino)-2-(2,6-dioxopiperidin-3-yl)isoindoline-1,3-dione], the pIC50 with LNCaP cells (CellTiter-Glo (Table 3)) was 8.03. Further, at P300 (setting [1]), the inhibition at 0.01 µM was > 80%.

As to `CNC(=O)N1CCc2c(c(N3CCCc4cc(-c5cnn(CC(=O)NCCOCCNc6cccc7c6C(=O)N(C6CCC(=O)NC6=O)C7=O)c5)c(C(F)F)cc43)nn2C2CCOCC2)C1` (centres unmarked) [P-021], the pIC50 in the assay with LNCaP cells (CellTiter-Glo (Table 2)) was 6.56. Moreover, the inhibition at 0.01 µM at P300 (setting [2]) is < 20%.

`CNC(=O)N1CCc2c(c(N3CCCc4cc(-c5cnn(CC(=O)NCCCCNc6ccc7c(c6)C(=O)N(C6CCC(=O)NC6=O)C7=O)c5)c(C(F)F)cc43)nn2C2CCOCC2)C1` (centres unmarked) [P-018] had a pIC50 in the assay on LNCaP cells (CellTiter-Glo (Table 2)) of 7.23. Also, the inhibition at 0.01 µM at P300 (setting [2]) was 20 to 50%.
